Laboratory results: US11572344B2, “Cyanoaryl-aniline compounds for treatment of dermal disorders” (NFlection Therapeutics, Inc., priority 2018, dated 2023)
pIC50: −log10 of the molar value.

Tests used:
A375 cells = assay: A375 (BRAF) GI50 cell-based assay (Cell Titer-Glo); details: Homo sapiens, A-375, 72 hours, read-out: Assay 2: A375 (BRAF) GI50
Method: (§1) Alternatively, the following procedure can be used to measure cell-based activity. Test compounds were dissolved in DMSO in 10 mM stock. Cell Titer-Glo® 2.0 Luminescent cell viability assay reagent was purchased from Promega (Madison, Wis.). A375 and HCT116 cell lines were purchased from American Type Culture Collection (Manassas, Va.). For A375 cells, cell culture media was DMEM+10% FBS. For HCT116 cells, cell culture media was McCoy's 5A+10% FBS. All media were supplemented with 100 μg/mL of penicillin, and 100 μg/mL of streptomycin. Cultures were maintained at 37° C. in a humidified atmosphere of 5% CO2 and 95% air.
(§2) Test compounds were diluted in DMSO solution with 10-dose and 3-fold dilutions in a source plate starting at 10 mM. 25 nL of each test compound was delivered from the source plate to each well of the 384-well cell culture plates (T=Final) by Echo 550. 25 μL of culture medium containing 2000 of A375 or HCT116 cells was added to each of the wells in duplicates of the cell culture plates (T=0 and T=Final). 25 μL of Cell Titer Glo 2.0 reagent was added to each well of cell culture plate (T=0). The contents were mixed on an orbital shaker for 2 min and incubated at room temperature for 15 min to stabilize luminescent signal. Luminescence was recorded by Envision 2104 Multilabel Reader (PerkinElmer, Santa Clara, Calif.). The number of viable cells in culture was determined based on quantitation of the ATP present in each culture well. The cells in cell culture plate (T=Final) were incubated with the compounds at 37° C., 5% CO2 for 72 hours. 25 μL of Cell Titer Glo 2.0 reagent was added to each well. The contents were mixed on an orbital shaker for 2 min and incubated at room temperature for 15 min to stabilize luminescent signal. Luminescence was recorded by Envision 2104 Multilabel Reader (PerkinElmer, Santa Clara, Calif.). The number of viable cells in culture was determined based on quantitation of the ATP present in each culture well. The GI50 curves were plotted using the GraphPad Prism 4 program based on a sigmoidal dose-response equation Y=Bottom+(Top-Bottom)/(1+10^((Log EC50−X)*HillSlope)). All parameters in the equation were calculated by GraphPad Prism 4 program. […] Accordingly, GI50 is the value of 10^X, where X was calculated by the Curve Fitting Equation when Y=50 using Excel.
Assay 2 is the A375 (BRAF) GI50 (nM) cell-based assay as described in Example 41.

MEK1 = MEK1 (Homo sapiens (Human), UniProt Q02750); assay: MEK Inhibition Assay-1 (33P-ATP, P81 filter-binding); details: assay of Example 38; read-out: Assay 1: biochemical MEK IC50
Method: The following procedure can be used to measure biochemical activity. MEK1 inhibitory activity of compounds were tested using the following procedure. […] Nat Biotechnol. 2011, 29(11), 1039-45.
• Reaction buffer: 20 mM Hepes (pH 7.5), 10 mM MgCl2, 1 mM EGTA, 0.02% Brij35, 0.02 mg/mL BSA, 0.1 mM Na3VO4, 2 mM DTT, 1% DMSO • Enzyme: MEK1, Invitrogen cat #PV3303 • N-terminal His-tagged recombinant human full length protein, expressed in insect cells. Activated in vitro by RAF1. MW=49.2 kDa, GenBank Accession No. NP_002746. • Substrate: 5 μM ERK2 (K52R), • Kinase-dead mutant, (GenBank Accession No. NM_0011949), aa2-358 with N-terminal His6 tag, MW=43.63 kDa, expressed in E. coli.
The substrate was prepared in freshly prepared Reaction Buffer. The kinase was delivered into the substrate solution and gently mixed. Test compounds were delivered in 100% DMSO into the kinase reaction mixture by Acoustic technology (Echo550; nanolitter range), and incubated for 20 min at room temperature. ^33P-ATP was delivered into the reaction mixture to initiate the reaction. The reaction mixture was incubated for 2 hours at room temperature. Kinase activity was detected by P81 filter-binding method.
Assay 1 is the biochemical MEK IC50 (nM) assay as described in Example 38.

HCT116 cells = assay: HCT116 (Kras) GI50 cell-based assay (Cell Titer-Glo); details: Homo sapiens, HCT-116, 72 hours, read-out: Assay 3: HCT116 (Kras) GI50
Method: as §1, §2
Assay 3 is the HCT116 (Kras) GI50 (nM) assay as described in Example 41.

Chain of MEK1 (Q02750 whole entry): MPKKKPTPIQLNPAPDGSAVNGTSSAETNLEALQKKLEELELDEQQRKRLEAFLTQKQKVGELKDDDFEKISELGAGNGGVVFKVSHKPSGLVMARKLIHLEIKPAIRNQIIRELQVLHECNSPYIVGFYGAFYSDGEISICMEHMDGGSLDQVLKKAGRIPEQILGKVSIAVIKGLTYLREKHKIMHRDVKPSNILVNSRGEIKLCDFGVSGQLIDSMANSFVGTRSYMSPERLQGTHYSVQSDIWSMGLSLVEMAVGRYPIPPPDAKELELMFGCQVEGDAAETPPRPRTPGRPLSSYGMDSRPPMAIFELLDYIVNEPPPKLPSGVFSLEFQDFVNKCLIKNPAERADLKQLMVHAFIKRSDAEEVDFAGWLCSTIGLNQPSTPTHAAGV

Structure (SMILES)	GI50 (A375 cells) [nM]	pIC50 (MEK1)	GI50 (HCT116 cells) [nM]
N#Cc1ccc(C(=O)NOCC2CC2)c(Nc2ccc(I)cc2F)c1F [Compound 1.031]	≤ 500	≥ 6.82	750 to 2000
N#Cc1ccc(C(=O)NOCCO)c(Nc2ccc(I)cc2F)c1F [Compound 1.030, 4-cyano-3-fluoro-2-((2-fluoro-4-iodophenyl)amino)-N-(2-hydroxyethoxy) benzamide]	≤ 500	≥ 6.82	≤ 750
N#Cc1ccc(C(=O)NOCCO)c(Nc2ccc(I)cc2F)c1 [Compound 1.010]	≤ 500	≥ 6.82	≤ 750
